Experimental data as given in US20240300932A1, “N-PHENYLIMINE DERIVATIVE AND PREPARATION METHOD AND USE THEREOF” (Guizhou University, priority 2023, published 2024).

What was measured:
[1] = system: Setaria viridis; assay: Post-emergence herbicidal activity test (stem and leaf spray, pot culture); format: in vivo; settings: 3 weeks after spraying
Method in brief: (§1)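 Seeds soaked 6 h at 25 °C, germinated at 28 °C, sown in loam pots and thinned to 10 plants/pot. At 2–3 leaves, plants received a single spray-tower application of 10, 5 or 2.5 g/mu. Fresh-weight control was graded 0–5 after 3 weeks.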

[2] = system: Amaranthus retroflexus; assay: as above; format: in vivo; settings: 3 weeks after spraying
Method in brief: as §1

[3] = system: Abutilon theophrasti; assay: as above; format: in vivo; settings: 3 weeks after spraying
Method in brief: as §1

[4] = system: Portulaca oleracea; assay: as above; format: in vivo; settings: 3 weeks after spraying
Method in brief: as §1

[5] = system: Echinochloa crusgalli; assay: as above; format: in vivo; settings: 3 weeks after spraying
Method in brief: as §1

[6] = system: Trifoliumre pensL.; assay: Post-emergence herbicidal activity test (stem and leaf spray, pot culture); format: in vivo; settings: 3 weeks after spraying
Method in brief: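 Rates of 10, 5 and 2.5 g/mu were applied in a single spray-tower treatment to 2–3-leaf plants, thinned to 10 per pot. Formulation: acetone solution, Tween 80, 1.5 L/ha methyl oleate synergist. Weed response assessed after 3 further greenhouse weeks; mean of three experiments.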

| Structure (SMILES) | Post-emergence herbicidal activity, S. viridis (grade) ([1]; dosage 2.5 g/mu) | Post-emergence herbicidal activity, S. viridis (grade) ([1]; dosage 5 g/mu) | Post-emergence herbicidal activity, S. viridis (grade) ([1]; dosage 10 g/mu) | Post-emergence herbicidal activity, A. retroflexus (grade) ([2]; dosage 2.5 g/mu) | Post-emergence herbicidal activity, A. retroflexus (grade) ([2]; dosage 5 g/mu) | Post-emergence herbicidal activity, A. retroflexus (grade) ([2]; dosage 10 g/mu) | Post-emergence herbicidal activity, A. theophrasti (grade) ([3]; dosage 2.5 g/mu) | Post-emergence herbicidal activity, A. theophrasti (grade) ([3]; dosage 5 g/mu) | Post-emergence herbicidal activity, A. theophrasti (grade) ([3]; dosage 10 g/mu) | Post-emergence herbicidal activity, P. oleracea (grade) ([4]; dosage 2.5 g/mu) | Post-emergence herbicidal activity, P. oleracea (grade) ([4]; dosage 5 g/mu) | Post-emergence herbicidal activity, P. oleracea (grade) ([4]; dosage 10 g/mu) | Post-emergence herbicidal activity, E. crusgalli (grade) ([5]; dosage 2.5 g/mu) | Post-emergence herbicidal activity, E. crusgalli (grade) ([5]; dosage 5 g/mu) | Post-emergence herbicidal activity, E. crusgalli (grade) ([5]; dosage 10 g/mu) | melting point [°C] | Post-emergence herbicidal activity, Trifoliumre pensL. (grade) ([6]; dosage 2.5 g/mu) | Post-emergence herbicidal activity, Trifoliumre pensL. (grade) ([6]; dosage 5 g/mu) | Post-emergence herbicidal activity, Trifoliumre pensL. (grade) ([6]; dosage 10 g/mu) |
| --- | --- | --- | --- | --- | --- | --- | --- | --- | --- | --- | --- | --- | --- | --- | --- | --- | --- | --- | --- |
| Cc1ccc(Br)cc1-c1noc(COc2cc(N3C(=O)C4=C(CCCC4)C3=O)c(F)cc2Cl)n1 [Compound A1, 2-(5-((3-(5-bromo-2-tolyl)-1,2,4-oxadiazole-5-yl)methoxy)-4-chloro-2-fluorophenyl)-4,5,6,7-tetrahydro-1H-isoindole-1,3(2H)-dione] | 2 (Grade 2: the growth control rate is greater than or equal to 20% and less than 40%) | 3 (Grade 3: the growth control rate is greater than or equal to 40% and less than 60%) | 4 (Grade 4: the growth control rate is greater than or equal to 60% and less than 85%) | 5 (Grade 5: the growth control rate is greater than or equal to 85%) | 5 (Grade 5: the growth control rate is greater than or equal to 85%) | 5 (Grade 5: the growth control rate is greater than or equal to 85%) | 5 (Grade 5: the growth control rate is greater than or equal to 85%) | 5 (Grade 5: the growth control rate is greater than or equal to 85%) | 5 (Grade 5: the growth control rate is greater than or equal to 85%) | 4 (Grade 4: the growth control rate is greater than or equal to 60% and less than 85%) | 5 (Grade 5: the growth control rate is greater than or equal to 85%) | 5 (Grade 5: the growth control rate is greater than or equal to 85%) | 1 (Grade 1: the growth control rate is greater than or equal to 5% and less than 20%) | 2 (Grade 2: the growth control rate is greater than or equal to 20% and less than 40%) | 3 (Grade 3: the growth control rate is greater than or equal to 40% and less than 60%) | 101 to 105 | 4 (Grade 4: the growth control rate is greater than or equal to 60% and less than 85%) | 5 (Grade 5: the growth control rate is greater than or equal to 85%) | 5 (Grade 5: the growth control rate is greater than or equal to 85%) |
| Cc1ccccc1-c1noc(COc2cc(N3C(=O)C4=C(CCCC4)C3=O)c(F)cc2Cl)n1 [Compound A2, 2-(4-chloro-2-fluoro-5-((3-(2-tolyl)-1,2,4-oxadiazole-5-yl)methoxy)phenyl)-4,5,6,7-tetrahydro-1H-isoindole-1,3(2H)-dione] | 2 (Grade 2: the growth control rate is greater than or equal to 20% and less than 40%) | 3 (Grade 3: the growth control rate is greater than or equal to 40% and less than 60%) | 4 (Grade 4: the growth control rate is greater than or equal to 60% and less than 85%) | 5 (Grade 5: the growth control rate is greater than or equal to 85%) | 5 (Grade 5: the growth control rate is greater than or equal to 85%) | 5 (Grade 5: the growth control rate is greater than or equal to 85%) | 5 (Grade 5: the growth control rate is greater than or equal to 85%) | 5 (Grade 5: the growth control rate is greater than or equal to 85%) | 5 (Grade 5: the growth control rate is greater than or equal to 85%) | 4 (Grade 4: the growth control rate is greater than or equal to 60% and less than 85%) | 5 (Grade 5: the growth control rate is greater than or equal to 85%) | 5 (Grade 5: the growth control rate is greater than or equal to 85%) | 1 (Grade 1: the growth control rate is greater than or equal to 5% and less than 20%) | 2 (Grade 2: the growth control rate is greater than or equal to 20% and less than 40%) | 3 (Grade 3: the growth control rate is greater than or equal to 40% and less than 60%) | 161 to 167 | 4 (Grade 4: the growth control rate is greater than or equal to 60% and less than 85%) | 5 (Grade 5: the growth control rate is greater than or equal to 85%) | 5 (Grade 5: the growth control rate is greater than or equal to 85%) |
| O=C1C2=C(CCCC2)C(=O)N1c1cc(OCc2nnc(-c3cccc(Cl)c3)o2)c(Cl)cc1F [Compound B2, 2-(4-chloro-5-((5-(3-chlorophenyl)-1,3,4-oxadiazole-2-yl)methoxy)-2-fluorophenyl)-4,5,6,7-tetrahydro-1H-isoindole-1,3(2H)-dione] | 2 (Grade 2: the growth control rate is greater than or equal to 20% and less than 40%) | 3 (Grade 3: the growth control rate is greater than or equal to 40% and less than 60%) | 4 (Grade 4: the growth control rate is greater than or equal to 60% and less than 85%) | 5 (Grade 5: the growth control rate is greater than or equal to 85%) | 5 (Grade 5: the growth control rate is greater than or equal to 85%) | 5 (Grade 5: the growth control rate is greater than or equal to 85%) | 5 (Grade 5: the growth control rate is greater than or equal to 85%) | 5 (Grade 5: the growth control rate is greater than or equal to 85%) | 5 (Grade 5: the growth control rate is greater than or equal to 85%) | 5 (Grade 5: the growth control rate is greater than or equal to 85%) | 5 (Grade 5: the growth control rate is greater than or equal to 85%) | 5 (Grade 5: the growth control rate is greater than or equal to 85%) | 1 (Grade 1: the growth control rate is greater than or equal to 5% and less than 20%) | 2 (Grade 2: the growth control rate is greater than or equal to 20% and less than 40%) | 3 (Grade 3: the growth control rate is greater than or equal to 40% and less than 60%) | 158 to 162 | 5 (Grade 5: the growth control rate is greater than or equal to 85%) | 5 (Grade 5: the growth control rate is greater than or equal to 85%) | 5 (Grade 5: the growth control rate is greater than or equal to 85%) |
| Cc1ccccc1-c1nnc(COc2cc(N3C(=O)C4=C(CCCC4)C3=O)c(F)cc2Cl)o1 [Compound B9, 2-(4-chloro-2-fluoro-5-((5-(2-tolyl)-1,3,4-oxadiazole-2-yl)methoxy)phenyl)-4,5,6,7-tetrahydro-1H-isoindole-1,3(2H)-dione] | 2 (Grade 2: the growth control rate is greater than or equal to 20% and less than 40%) | 3 (Grade 3: the growth control rate is greater than or equal to 40% and less than 60%) | 4 (Grade 4: the growth control rate is greater than or equal to 60% and less than 85%) | 5 (Grade 5: the growth control rate is greater than or equal to 85%) | 5 (Grade 5: the growth control rate is greater than or equal to 85%) | 5 (Grade 5: the growth control rate is greater than or equal to 85%) | 5 (Grade 5: the growth control rate is greater than or equal to 85%) | 5 (Grade 5: the growth control rate is greater than or equal to 85%) | 5 (Grade 5: the growth control rate is greater than or equal to 85%) | 5 (Grade 5: the growth control rate is greater than or equal to 85%) | 5 (Grade 5: the growth control rate is greater than or equal to 85%) | 5 (Grade 5: the growth control rate is greater than or equal to 85%) | 1 (Grade 1: the growth control rate is greater than or equal to 5% and less than 20%) | 2 (Grade 2: the growth control rate is greater than or equal to 20% and less than 40%) | 3 (Grade 3: the growth control rate is greater than or equal to 40% and less than 60%) | 144 to 147 | 5 (Grade 5: the growth control rate is greater than or equal to 85%) | 5 (Grade 5: the growth control rate is greater than or equal to 85%) | 5 (Grade 5: the growth control rate is greater than or equal to 85%) |
